The test system of one data set is HepG2. The data set can be described thus: Cytotoxicity against human HepG2 cells assessed as reduction in cell growth by CCK8 assay. The data set is classed as functional, cell-based. (Formazan colour is commonly taken as a measure of viable cells.)
The test system of another data set is HeLa. The data set is described as follows: Cytotoxicity against human HeLa cells assessed as reduction in cell growth by CCK8 assay. It counts as functional, cell-based.
The subject of data set [1] is A549. The data set is described as follows: Cytotoxicity against human A549 cells assessed as reduction in cell growth by CCK8 assay. It counts as functional, cell-based.
In another data set the target is Tubulin. The data set is described as follows: (§1) Inhibition of tubulin polymerization (unknown origin) measured every 30 secs for 90 mins. It counts as protein-complex assay, Homo sapiens.
In a further data set the test system is BEAS-2B. The data set can be described thus: Cytotoxicity against human BEAS-2B cells assessed as reduction in cell growth by CCK8 assay. It counts as cell-based.
For data set [2], the target named is T1, Tubulin (Homo sapiens) (UniProt P68371+Q9H4B7+P0DPH7+P68366+Q13509+Q71U36+P04350+Q3ZCM7+P07437+P68363+Q9BQE3+Q6PEY2+Q13885+Q9BVA1+Q9BUF5). The data set can be described thus: Inhibition of tubulin polymerization (unknown origin) at 40 uM measured every 30 secs for 90 mins relative to control. The data set is classed as protein-complex assay.
Data set [3] can be described thus: Selectivity ratio of IC50 for human BEAS-2B cells to IC50 for human A549 cells. It counts as toxicity. Particulars: BEAS-2B cells versus A549 cells, read-out: Ratio IC50.
The subject of data set [4] is A549. The data set can be described thus: Induction of cell cycle arrest in human A549 cells assessed as accumulation at G1 phase at 1 uM after 24 hrs by flow cytometric analysis (reference value: 70.48%). The data set is classed as functional. In general terms: In flow cytometry, cells or beads pass a laser one at a time.
The test system of data set [5] is A549. The data set can be described thus: Induction of cell cycle arrest in human A549 cells assessed as accumulation at G2/M phase at 1 uM after 24 hrs by flow cytometric analysis (reference value: 14.08%). The data set is classed as functional.
For data set [6], the target named is T1, Tubulin (Homo sapiens). The description is as §1. It counts as protein-complex assay.
In data set [7] the test system is A549. The data set is described as follows: Induction of cell cycle arrest in human A549 cells assessed as accumulation at S phase at 1 uM after 24 hrs by flow cytometric analysis (reference value: 15.44%). It counts as functional.

As a reminder, the IC50 is the concentration that inhibits the measured activity by half. Regarding `O=C(c1ccc(O)cc1)c1ncc(-c2ccccc2)o1`, the IC50 in the data set with HepG2, in the data set on HeLa and with A549 [1] was more than 30 µM in each case.
On to `COc1cccc(-c2cnc(C(=O)c3ccccc3)o2)c1`, for which the IC50 in the data set on HepG2, in the data set with HeLa and in the data set on A549 [1] was more than 30 µM each time.
A word on the inhibition: it is the percentage by which the read-out fell short of the control. As to `COc1ccc(-c2cnc(C(=O)Nc3ccc(O)cc3)o2)cc1F`, the IC50 with HepG2 was 1.81 µM; in the data set with HeLa it was 1.12 µM; in the data set with A549 [1], 1.2 µM; at Tubulin it was more than 40 µM; in the data set on BEAS-2B, 2.6 µM. Further, the inhibition on Tubulin (Homo sapiens) [2] is 46%. In data set [3], the selectivity ratio was found to be 2.17.
Turning to `COc1cc(-c2cnc(C(=O)Nc3ccc([N+](=O)[O-])cc3)o2)cc(OC)c1OC`, the IC50 in the data set with HepG2, with HeLa and with A549 [1] was more than 30 µM in each case.
For `CN(C)c1ccc(NC(=O)c2ncc(-c3ccccc3)o2)cc1`, the half-maximal inhibitory concentration (IC50) in the data set with HepG2, in the data set on HeLa and in the data set with A549 [1] was more than 30 µM in each case.
For `O=C(c1ncc(-c2ccccc2)o1)N1CCN(c2ccccc2)CC1`, the IC50 with HepG2, in the data set on HeLa and in the data set on A549 [1] was more than 30 µM each time.
For `COc1ccc(NC(=O)c2ncc(-c3ccccc3)o2)cc1`, the IC50 with HepG2, in the data set on HeLa and in the data set with A549 [1] was more than 30 µM each time.
`COc1ccc(NC(=O)c2ncc(-c3ccc(O)cc3)o2)cc1`: the IC50 was 17.3 µM in the data set with HepG2, 9.67 µM in the data set with HeLa and 11.3 µM in the data set on A549 [1].
For `COc1cc(-c2cnc(C(=O)Nc3ccccc3)o2)cc(OC)c1OC` the same measures were more than 30 µM, 27.3 µM and more than 30 µM.
For `O=C(Nc1cccc(O)c1)c1ncc(-c2ccccc2)o1` the same measures were more than 30 µM, more than 30 µM and more than 30 µM.
With `COc1ccc(-c2cnc(C(=O)Nc3ccc(O)cc3)o2)cc1`, the IC50 in the data set with HepG2 is 2.76 µM; in the data set with HeLa, 1.44 µM; with A549 [1], 1.93 µM; on Tubulin it was more than 40 µM; with BEAS-2B, 4.58 µM. This compound also showed an inhibition at Tubulin (Homo sapiens) [2] of 27%. The selectivity ratio in data set [3] turned out to be 2.37.
Take `COc1cc(-c2cnc(C(=O)Nc3ccc(O)cc3)o2)cc(OC)c1OC`: the IC50 with HepG2, in the data set on HeLa and in the data set on A549 [1] was more than 30 µM in each case.
`O=C(Nc1ccc(O)cc1)c1ncc(-c2ccc(F)cc2)o1`: the IC50 in the data set on HepG2, in the data set on HeLa and in the data set with A549 [1] was more than 30 µM throughout.
On to `Cc1ccc(NC(=O)c2ncc(-c3ccccc3)o2)cc1`, for which the half-inhibitory concentration (IC50) in the data set with HepG2, with HeLa and in the data set on A549 [1] was more than 30 µM throughout.
For the compound `O=C(Nc1ccc(O)cc1)c1ncc(-c2ccccc2)o1`, the Activity with A549 [4] came to 1.14%; in the data set on A549 [5] it was 85.81%; in the data set with A549 [7] it was 13.05%. Also, the IC50 in the data set on HepG2 worked out at 1.27 µM; in the data set with HeLa, 0.78 µM; in the data set on A549 [1] it was 1.08 µM; against Tubulin, 16.7 µM; in the data set with BEAS-2B it was 3.36 µM. Further, the inhibition entry on Tubulin (Homo sapiens) [6] was “Dose-Dependent Effect”; against Tubulin (Homo sapiens) [2], 91%. The selectivity ratio in data set [3] was 3.11.
On to `COc1cc2c(c(OC)c1OC)-c1ccc(OC)c(=O)cc1[C@@H](NC(C)=O)CC2` [COLCHICINE], for which the IC50 turned out to be 0.053 µM in the data set on A549 [1] and 0.016 µM with BEAS-2B.
For `O=C(c1ncc(-c2ccccc2)o1)N1CCN(c2ccc(Cl)cc2)CC1`, the IC50 in the data set on HepG2, in the data set with HeLa and in the data set with A549 [1] was more than 30 µM each time.
For `COc1ccc(NC(=O)c2ncc(-c3cc(OC)c(OC)c(OC)c3)o2)cc1`, the IC50 in the data set with HepG2 was more than 30 µM; in the data set on HeLa it was 20.5 µM; with A549 [1] it was 25.8 µM.
For `O=C(Nc1ccc(Cl)cc1)c1ncc(-c2ccccc2)o1` the same measures were more than 30 µM, more than 30 µM and more than 30 µM.
For `COc1cc(-c2cnc(C(=O)Nc3ccc(F)cc3)o2)cc(OC)c1OC` the same measures were more than 30 µM, more than 30 µM and more than 30 µM.
For `COc1ccc(C(=O)c2ncc(-c3ccc(OC)cc3)o2)cc1` the same measures were more than 30 µM, more than 30 µM and more than 30 µM.
As for `CCN(CC)c1ccc(NC(=O)c2ncc(-c3ccccc3)o2)cc1`, the IC50 in the data set with HepG2, in the data set on HeLa and in the data set with A549 [1] was more than 30 µM throughout.
For `COc1ccc(-c2cnc(C(=O)c3ccccc3)o2)cc1`, the half-inhibitory concentration (IC50) in the data set with HepG2, with HeLa and in the data set with A549 [1] was more than 30 µM throughout.
Consider `COc1cc(-c2cnc(C(=O)c3ccccc3)o2)cc(OC)c1OC`, for which the IC50 in the data set on HepG2, in the data set with HeLa and in the data set on A549 [1] was more than 30 µM in each case.
As to `COc1cc(C(=O)c2ncc(-c3ccccc3)o2)cc(OC)c1OC`, the IC50 with HepG2, in the data set with HeLa and in the data set with A549 [1] was more than 30 µM each time.

(Values after ChEMBL document CHEMBL4814012, “Synthesis and structure-activity relationships of 5-phenyloxazole-2-carboxylic acid derivatives as novel inhibitors of tubulin polymerization” (Bioorg Med Chem Lett, 2021).)
